According to a melting point compilation (Tetko et al.; mined from patent text by program, amines drawn as free bases though some values may be those of a salt):

Compound	melting point [°C]
CCNC(=O)NS(=O)(=O)c1cc2c(cc1OC)OCC(NC(=O)c1cc(Cl)ccc1OC)C2 (stereo not drawn)	233 to 234
Cc1nc(-c2ccc(F)cc2)sc1C(=O)NCc1ccc(OC(C)(C)C(=O)O)cc1	159
Cc1cc(Cl)cc2c(-c3ccc(Cl)cc3)onc12	151 to 152
O=C(Cc1c(-c2ccccc2)c2cc(O)c(Cl)cc2oc1=O)Nc1ccc(Cl)cc1C(F)(F)F	246 to 247
c1ccc(Cn2c(NC3=NCCN3)nc3ccccc32)cc1	165 to 166
Cc1cccc(-c2n[nH]cc2-c2ccc(F)c(-c3cn(C)cn3)c2)n1	168 to 169
BrCc1ccccc1Oc1ccc(Br)cc1	56 to 58
CCN1C(=O)CC2(CNC(=O)C2)C1=O (stereo not drawn)	168 to 169
CC1CCC(=O)N1CC(=O)NCCN1C(C)CCCC1C (stereo not drawn)	115 to 116
CCCCCCCCCCCc1ccc(F)c(-c2nc(-c3ccccc3Cl)nn2C)c1	35 to 37
CS(=O)(=O)C=C(N)C1(c2ccc(Cl)cc2)CCC1	125 to 126
CC(C)(C)OC(=O)NCc1cc(-c2cccnc2)no1	67 to 69
COc1ccc(C=CC(=O)NNC(=O)C=Cc2ccccc2)cc1	263
C=C1SC(SCc2ccccc2C(=COC)C(=O)OC)=NC1(C)C	101
N#CC1=CC(CF)(CF)Oc2ccc([N+](=O)[O-])cc21	136 to 137
COc1ccc(N2CCOCC2)c2sc(-c3ncc(-c4csc5ccccc45)[nH]3)nc12	161 to 162
CCSc1ncn(-c2ccc(O)cc2)n1	170
COc1ccccc1N1CCN(CC(O)COc2ccccc2-c2ccnc(N)n2)CC1 (stereo not drawn)	147 to 149
CC(=O)Nc1cc(Cl)cc(Cl)c1	182
CC1C(=O)N(CCO)C(=S)N1c1ccc(Oc2ccccc2)cc1 (stereo not drawn)	120
Nc1nnc(CCCCCBr)s1	128 to 130
CC(=O)Nc1nc2c(Oc3cc(-c4ccc(C(F)(F)F)cc4NC(=O)OC(C)(C)C)ncn3)cccc2s1	194 to 195
Cc1c(-c2ccc(Cl)cc2)nc2ccc(C(=O)NC(Cc3ccc(OCc4ccccc4)cc3)C(=O)O)cn12 (stereo not drawn)	244 to 245
COCOc1cc(F)ccc1-c1cc(-c2cccc([N+](=O)[O-])c2)c(C#N)c(NC(=O)c2ccno2)n1	161 to 162
CCC1(O)C(C)=CC(=O)N1Cc1ccccc1 (stereo not drawn)	129 to 132

Compound	melting point [°C]
COc1ccc2c(Cl)cc(-c3ccc(C)cc3)nc2c1	129 to 131
CCc1cc2c(cc1CC)C(=O)C(Cl)=CC2=O	90 to 92
N#Cc1ccnc(-c2nc(=O)c3ccccc3s2)c1	283 to 284
CCOCc1nc2c(N)nc3c(c2n1CC1(OCCS(C)(=O)=O)CCC1)CCCC3	186 to 188
O=C(O)C1C2CC3C(C2=O)C31 (stereo not drawn)	144 to 145
N#C[C@@H]1CCC[C@H]2OC[C@@H](c3ccccc3)N12	81
FC(F)(F)C(Cc1ccccc1)(C(F)(F)F)C(F)(F)F	32 to 33
Cc1ccc(S(=O)(=O)Oc2cccc(C=O)c2)cc1	65 to 67
CCCn1nc2c(N)nc3ccccc3c2c1CC(C)C	199 to 200
CSc1ncc(C(=O)N(C)Cc2cc(C(F)(F)F)cc(C(F)(F)F)c2)c(-c2ccccc2)n1	119 to 120
CCCN1CCC[C@@H]2c3cccc(O)c3OC[C@H]21 (relative stereo)	111 to 114
O=C(O)CCc1cccc(CNC(=O)C2Cc3ccccc3N2S(=O)(=O)c2ccc(-c3cccc(C(F)(F)F)c3)cc2)c1 (stereo not drawn)	135
CCOC(=O)c1c(-c2cccc([N+](=O)[O-])c2)cc(-c2ccccc2)nc1CBr	125 to 128
O=c1[nH]c2cc([N+](=O)[O-])cnc2n1-c1ccc2c(c1)OCO2	224 to 225
Cn1c(=O)n(CCCC(NS(=O)(=O)c2ccc(-c3ccc(Cl)cc3)cc2)C(=O)O)c(=O)c2ccccc21 (stereo not drawn)	188 to 191
O=C(CC12CC3CC(CC(C3)C1)C2)Nc1c(Cl)ccc2ncccc12	219 to 220
CCCNC(=O)C(C)=Cc1ccc2c(c1)c(Cc1ccc(C(=O)O)cc1OC)cn2CCC(=O)N(C)C	90 to 97
CC(=O)N1c2cc(Cl)cc(Cl)c2C(=O)CC1C(=O)O (stereo not drawn)	212 to 213
O=c1c(-c2ccc(O)cc2)coc2ncccc12	262 to 264
CC(C)(C)C(=O)OC1CCCCC1=O (stereo not drawn)	35 to 36
Cc1c(O)cccc1C(=O)N[C@@H](Cc1ccccc1)[C@H](O)C(=O)N1CSC(C)(C)[C@H]1C(=O)N[C@@H]1CCc2ccccc21	128 to 130
N#Cc1cccc(C2=Nc3cc(CO)c(-c4ccccc4F)cc3NC(=O)C2)c1	90 to 91
N#Cc1ccc(C(=O)Nc2ccc(Cl)c([N+](=O)[O-])c2)cc1	213
O=c1c2ccc(OCCN3CCCCC3)cc2oc2cc(OCCN3CCCCC3)ccc12	134
[N-]=[N+]=N[C@@H]1c2cc(F)ccc2Oc2ccccc2[C@H]1C[C@@H](O)COC(c1ccccc1)(c1ccccc1)c1ccccc1	58 to 59

Compound	melting point [°C]
Cc1cc(Cl)cc(C(=O)NC2(C)CS(=O)(=O)C2)c1NC(=O)c1cc(OCC(F)(F)F)nn1-c1ncccc1Cl	> 250
O=c1c(Cl)c(S(=O)(=O)C2CCCCC2)cnn1-c1ccccc1	195 to 196
CCCOc1ccc(C(=O)OC)cc1-c1ccc(C#N)c(=O)[nH]1	201 to 203
Cc1cc(-c2cc(C(F)(F)F)n3nccc3n2)ccc1C(F)(F)F	87
O=C(O)C1CCCCN1CC=CP(=O)(O)O (stereo not drawn)	163 to 165
Cc1ccc(CNc2nc(OCC(F)(F)F)nc(Oc3cccc(C(F)(F)F)c3)n2)o1	116 to 118
Cc1cc([C@@H](O)[C@@H](C)N2CCC(O)(c3ccc(F)cc3)CC2)ccc1O[Si](C(C)C)(C(C)C)C(C)C (relative stereo)	188 to 189
O=C(CN1CCNCC1)Nc1ccc2c(c1)C(=O)c1cc(NC(=O)CN3CCNCC3)ccc1C2=O	173
COc1ccc2ncn(/C=C/C(=O)O)c(=O)c2c1	298 to 299
O=C1NCCN1CC#CCN1CCCC1	71 to 75
O=C(C=Cc1ccc(O)c([N+](=O)[O-])c1)NC12CC3CC(CC(C3)C1)C2	162 to 163
CCc1nc2c(cnn2CC)c(NC2CCOCC2)c1CNC(=O)c1cccc(C(=O)NCc2cc(Cl)cc(-c3cccc(CN4CCNC(C)C4)c3)c2)c1 (stereo not drawn)	119 to 121
Fc1cccc(F)c1-c1cnnc(-c2ccc(-c3ccc(OC(F)(F)F)cc3)cc2)n1	159 to 160
Cc1ccc2sc3cc(C(=O)Cl)ccc3c2c1	127 to 128
Cc1sc(-c2ccccc2)nc1COc1ccc(COc2ncccc2CO)cc1	111 to 112
COc1cc(C2C3=C(COC3=O)Nc3ccc4cc[nH]c4c32)ccc1F (stereo not drawn)	170 to 172
CCCOc1ccccc1C(=O)Nc1cccnc1C(N)=O	116 to 118
CC(C)(C)Nc1nc(N)nc2c1ncn2C1C=CC(CO)C1 (stereo not drawn)	161 to 163
CC(C)(C)OC(=O)N[C@@H](Cc1ccccc1)C(=O)NCCCN1CCN(CCCNc2cccc3c2C(=O)c2ccccc2C3=O)CC1	168
Nc1cc(F)ccc1Nc1ccccc1	83 to 84
CC(C#N)c1coc2cc(I)ccc12 (stereo not drawn)	71 to 72
CC(C)c1nn(-c2ncc(C#N)cn2)cc1CCCO	153 to 154
CCCCC(=O)Nc1ccc2c(c1)C(=O)OC2CCCC (stereo not drawn)	137 to 139
Cc1nc(NN)c2c(n1)NC(=O)CO2	262 to 264
CC1Cc2cccc3c4oc(=O)c(Sc5cccc(F)c5)c(O)c4c(=O)n1c23 (stereo not drawn)	199 to 200

Compound	melting point [°C]
CON=C(N)Nc1nc(C)cc(C)n1	134 to 136
CC(=O)c1ccc(-c2ccc(N(c3ccccc3)c3ccccc3)cc2)cc1	97 to 98
CCCCCCCCNc1c(Nc2ccc(CC(C)NC[C@H](O)COc3ccc(O)cc3)cc2)c(=O)c1=O (stereo partly drawn)	122 to 127
COC(=O)C(C)c1ccc2c(c1)C(=O)Cc1cccnc1S2 (stereo not drawn)	98 to 99.5
CCOC(=O)c1c(C)nc2c3cccc(Cl)c3ccn12	140 to 141
Cn1cccc1CCN1C(=O)NCc2c(-c3ccccc3)cccc21	158 to 161
O=C1CSCC2=C1C(c1ccc(F)c(Br)c1)n1nccc1N2 (stereo not drawn)	160 to 163
CN=C(Cc1ccccc1)N1CC2C(=O)CCC(c3ccccc3)(c3ccccc3)C2C1 (stereo not drawn)	110
CCNCC1CCN(c2cc3c(cc2F)c(=O)c(C(=O)O)cn3CC)C1 (stereo not drawn)	248 to 252
O=C(C[C@@H](c1cc(F)cc(F)c1)C(F)(F)F)N1C(=O)OC[C@@H]1Cc1ccccc1	127 to 128
Cc1ccc(-c2nc(N)ncc2-c2ccc(=O)n(C)n2)cc1	230
CC(C)(C)c1ccc(C(=O)C(Cl)(Cl)Cl)cc1	59 to 62
CS(=O)(=O)Nc1cc(N)c([N+](=O)[O-])cc1OC1CCCCC1	136 to 137
O=C(O)CCc1cn(Cc2ccc(OCc3ccc4ccccc4n3)cc2)nc1-c1ccc(F)cc1	178 to 179
OCC(=C(c1ccc(F)cc1)c1ccc(F)cc1)n1cnnn1	152 to 154
CCCC(=O)NCc1ccc(C(=O)O)cc1	186 to 188
COc1ccccc1C1CCC(=O)C=C1C(=O)O (racemic)	177
C=CCOc1cc(C(=O)O)cc(C(=O)N(C)C)c1	93 to 95
CN(C)c1cc2c(cc1-c1ccc3cc(C=C4SC(=S)N(CC(=O)O)C4=O)ccc3c1)C(C)(C)CCC2(C)C	194 to 196
COc1ccc(C(=O)Cc2c(Cl)cncc2Cl)c2c1OCC2CC(=O)OCc1ccccc1 (stereo not drawn)	120 to 122
COc1cc(C)nc(NC(=O)NS(=O)(=O)c2csc3ccccc23)n1	180 to 181
N#CCCNC(=O)c1cccc(-c2ccc3c(c2)N(c2cc(Cl)cc(Cl)c2)CC3)c1	196 to 197
CNCCOC(=O)[C@@H](C)c1ccc2cc(OC)ccc2c1	64 to 68
